Earlier results, collected in patent US20220142981A1, “APREMILAST LIPOPHILIC TOPICAL PHARMACEUTICAL COMPOSITIONS” (APRAMITHA INNOVATIONS PRIVATE LIMITED, priority 2019, published 2022).

solubility in polar solvents (polar solvents): minimal solubility
solubility in water (water): insolubility
Compound: CCOc1cc([C@@H](CS(C)(=O)=O)N2C(=O)c3cccc(NC(C)=O)c3C2=O)ccc1OC [Apremilast, N-[2-[(lS)-l-(3-ethoxy-4-methoxyphenyl)-2-(methylsulfonyl)ethyl]-l,3-dioxo-2,3-dihydro-lH-isoindol-4-yl]acetamide]
